In the first assay the test system is Hennes-20 cells. As to the kind of experiment: Hennes-20 oncology screen (low vs high plating density, alamar Blue). Format: cell-based. The note with it: 72 h. Here is the method:
All compounds mentioned as active were tested in Hennes. Select hits from the Hennes screen were sent for additional anti-cancer testing.
To screen compounds for oncology activity Hennes-20 cells were plated at low (500 cells/well) versus high (15,000 cells/well) densities and treated with DMSO (vehicle) or dose-titration of compounds. The rationale for this screen is that an intrinsically toxic compound should kill cells regardless of density, including in Hennes-20 cells. However, a compound that selectively triggers the arrest of proliferation will inhibit cell growth when plated at a low density will appear cytotoxic due to inhibition of cell growth when plated at a low density but will appear non-toxic to cells plated at a high density where the cells are approaching confluence and the readout detected by a cell viability assay is already close to the maximum.
To conduct the Hennes-20 screen, two 96 well plates were seeded with Hennes 20 cells in parallel where one was plated at a density of 500 cells/well and the other was plated at a density of 15,000 cells/well. 90 uL of minimum essential media was added to each well and plates were placed in a 37 degrees Celsius incubator for 24 hours. The next day, 10 ul of media containing dilutions of compound in DMSO were added to each plate. Six wells on each plate received 10 ul of media containing only DMSO. Each well was gently mixed 5 times with a 100 ul pipette. Plates were incubated at 37 degrees Celsius for 72 hours then 10 uL of alamar Blue was added to each well. Wells were mixed 5 times then incubated at 37 degrees Celsius for […]. Plates were then read at 530/590.
The rationale for the screen is as follows: Hennes-20 cells lack endogenous apoptosis. Cells plated at low density will proliferate and approach confluence in 72 hrs. A drug that arrests proliferation may have its proliferation blocking effect masked by the triggering of endogenous apoptosis. However, in the Hennes line, lacking endogenous apoptosis, such an arrest is manifest as a dose-dependent maintenance at low cell density. Since the high-density cells are plated close to confluence, the difference between Alamar Blue cell survival readings after 72 hrs reflects the ability of the drug to block proliferation in the low density-plated cells. In the high density-plated cells any diminution of Alamar Blue readout vs vehicle control is due to intrinsic toxicity, not proliferation arrest, since cells were already at confluence. Thus, a compound that appears toxic (low Alamar Blue readings after 72 hrs) on the low-density plate, but which appears non-toxic (high Alamar Blue readings after 72 hrs) on the high-density plate, must be arresting proliferation, since intrinsic compound toxicity should be observed at both low and high cell densities, not selectively on the low-density plate.
`CCCCNc1ncnc2cc(N3CCN(c4cc(NCCC(C)C)c5cncnc5c4)C(C)C3)ccc12` (stereo not drawn) [Compound 67]: the EC50 came to 500 nM.

Still in this assay, the particulars now being: 72 h, Hennes-20 cells, 72 hours compound incubation, alamar Blue; read-out: EC50.
Take `CCCCNc1ncnc2cc(N(C)CCN(CC)c3ccc4c(NCCC(C)C)ncnc4c3)ccc12` [Compound 95]: the EC50 was less than 2500 nM.

For the molecule `CC(C)CCNc1ncnc2cc(N(C)CCCN(C)c3ccc4c(NCCC(C)C)ncnc4c3)ccc12` [Compound 99], the EC50 is less than 12500 nM. The same measure, in the same setting: under `CC(C)CNc1ncnc2cc(N3CCN(c4ccc5c(NCCc6ccncc6)ncnc5c4)CC3)ccc12` [Compound 65] stands 2500 nM.

`CC(C)CCNc1ncnc2cc(N3CCN(c4ccc5c(NCCC(C)C)ncnc5c4)C(C)C3C)ccc12` (stereo not drawn) [Compound 55]: the concentration giving a half-maximal response (EC50) came out at 500 nM. On the same count and under the same terms, under `CCCCNc1ncnc2cc(N3CCN(c4ccc5c(NCCC(C)C)ncnc5c4)CC3C)ccc12` (stereo not drawn) [Compound 51] stands 500 nM; under `CC(C)CCNc1ncnc2cc(N3CCN(c4ccc5c(NCCc6cccnc6)ncnc5c4)CC3)ccc12` [Compound 83], less than 2500 nM.

Take `CC(C)CNc1ncnc2cc(N3CCN(c4ccc5c(NCCC6CCNCC6)ncnc5c4)CC3)ccc12` [Compound 63]: the EC50 was greater than 12500 nM. On the same count and under the same terms, under `CCCCNc1ncnc2cc(N(C)CCN(C)c3ccc4c(NCCCC)ncnc4c3)ccc12` [Compound 89] stands 500 nM; under `CC(C)(C)CNc1ncnc2cc(N3CCN(c4ccc5c(NCCc6cccnc6)ncnc5c4)CC3)ccc12` [Compound 76], 2500 nM; under `CC(C)CCN(C)c1ncnc2cc(N3CCN(c4ccc5c(NCCC6CCNCC6)ncnc5c4)CC3)ccc12` [Compound 62], greater than 12500 nM. On the same count and under the same terms, under `CC(C)(C)CNc1ncnc2cc(N3CCN(c4ccc5c(NCCc6ccccn6)ncnc5c4)CC3)ccc12` [Compound 68] stands 500 nM; under `CC(C)CCN(C)c1ncnc2cc(N3CCN(c4ccc5c(NCCc6ccccc6)ncnc5c4)CC3)ccc12` [Compound 60], 2500 nM; under `CCCCNc1ncnc2cc(N(CC)CCN(C)c3ccc4c(NCCC(C)C)ncnc4c3)ccc12` [Compound 92], 2500 nM. On the same count and under the same terms, under `CCCCNc1ncnc2cc(N3CCN(c4ccc5c(NCCc6cccnc6)ncnc5c4)CC3)ccc12` [Compound 72] stands 2500 nM; under `CCCCNc1ncnc2cc(N3CCN(c4ccc5c(NCCc6ccccc6)ncnc5c4)CC3)ccc12` [Compound 56], 12500 nM; under `CC(C)CCNc1ncnc2cc(N3CC(C)N(c4ccc5c(NCCC(C)C)ncnc5c4)CC3C)ccc12` (stereo not drawn) [Compound 54], 2500 nM. In the case of `CC(C)CCNc1ncnc2cc(N3CCN(c4ccc5c(NCCN6CCN(C)CC6)ncnc5c4)CC3)ccc12` [Compound 82], the EC50 was less than 12500 nM.

For `CC(C)CCNc1ncnc2cc(N3CCN(c4ccc5c(NCC(C)C)ncnc5c4)CC3)ccc12` [Compound 8], the 50% effective concentration (EC50) was less than 500 nM. The same measure, in the same setting: under `CCCCNc1ncnc2cc(N3CCN(c4ccc5c(NCCCC)ncnc5c4)C(C)C3)ccc12` (stereo not drawn) [Compound 53] stands 500 nM.

In the case of `CCN(CCN(CC)c1ccc2c(NCC(C)(C)C)ncnc2c1)c1ccc2c(NCCC(C)C)ncnc2c1` [Compound 86], the concentration for a half-maximal effect (EC50) was less than 2500 nM.

With `CCCCNc1ncnc2cc(N3CCN(c4ccc5c(NCCc6ccncc6)ncnc5c4)CC3)ccc12` [Compound 73], the EC50 stood at 2500 nM. As to `CC(C)CCN(C)c1ncnc2cc(N3CCN(c4ccc5c(NCCc6ccncc6)ncnc5c4)CC3)ccc12` [Compound 61], the EC50 was found to be 2500 nM. On the same count and under the same terms, under `CCCCNc1ncnc2cc(N(C)CCN(C)c3ccc4c(NCCC(C)C)ncnc4c3)ccc12` [Compound 91] stands 2500 nM. On to `CCCCNc1ncnc2cc(N(C)CCCN(C)c3ccc4c(NCCC(C)C)ncnc4c3)ccc12` [Compound 98], for which the 50% effective concentration (EC50) was less than 2500 nM.

For the molecule `CC(C)(C)CNc1ncnc2cc(N3CCN(c4ccc5c(N6CCC(C)(C)CC6)ncnc5c4)CC3)ccc12` [Compound 74], the EC50 came out at 500 nM. On to `CN1CCN(CCNc2ncnc3cc(N4CCN(c5ccc6c(NCC(C)(C)C)ncnc6c5)CC4)ccc23)CC1` [Compound 75], for which the concentration giving a half-maximal response (EC50) was greater than 2500 nM. `CCN(CCN(C)c1ccc2c(NCCC(C)C)ncnc2c1)c1ccc2c(NCCC(C)C)ncnc2c1` [Compound 96]: the concentration for a half-maximal effect (EC50) is less than 2500 nM.

`CC(C)CNc1ncnc2cc(N3CCN(c4ccc5c(NCCc6ccccc6)ncnc5c4)CC3)ccc12` [Compound 64]: the EC50 stood at 2500 nM. Same read-out and setting: under `CC(C)CCNc1ncnc2cc(N3CCN(c4ccc5c(NCC(C)(C)C)ncnc5c4)CC3)ccc12` [Compound 24] stands less than 500 nM.

In the case of `CC(C)CCNc1cc(N2CCN(c3ccc4c(NCC(C)(C)C)ncnc4c3)CC2C)cc2ncncc12` (stereo not drawn) [Compound 66], the half-maximal effective concentration (EC50) amounted to 2500 nM.

`CC(C)(C)CNc1ncnc2cc(N3CCN(c4ccc5c(NCCC6CCNCC6)ncnc5c4)CC3)ccc12` [Compound 59]: the EC50 was greater than 12500 nM.

Turning to `CCCCNc1ncnc2cc(N3CCN(c4ccc5c(NCCC(C)C)ncnc5c4)C(C)C3C)ccc12` (stereo not drawn) [Compound 52], the 50% effective concentration (EC50) worked out at 2500 nM.

In the case of `CCCCNc1ncnc2cc(N3CCN(c4ccc5c(NCCN6CCN(C)CC6)ncnc5c4)CC3)ccc12` [Compound 71], the EC50 was greater than 2500 nM.

Regarding `CCN(CCN(C)c1ccc2c(NCC(C)(C)C)ncnc2c1)c1ccc2c(NCCC(C)C)ncnc2c1` [Compound 94], the EC50 is less than 2500 nM. For `CCCCNc1ncnc2cc(N(C)CCN(CC)c3ccc4c(NCCCC)ncnc4c3)ccc12` [Compound 93], the EC50 was less than 2500 nM. For `CC(C)CCNc1ncnc2cc(N3CCN(c4ccc5c(NCCCN(C)C)ncnc5c4)CC3)ccc12` [Compound 31], the EC50 is less than 12500 nM. Same read-out and setting: under `CC(C)CCNc1ncnc2cc(N3CCN(c4ccc5c(NCCc6nccs6)ncnc5c4)CC3)ccc12` [Compound 81] stands 500 nM; under `CCCCNc1ncnc2cc(N3CCN(c4ccc5c(NCCc6ccccn6)ncnc5c4)CC3)ccc12` [Compound 69], 500 nM; under `CC(C)CCNc1ncnc2cc(N3CCN(c4ccc5c(NCCc6ccncc6)ncnc5c4)CC3)ccc12` [Compound 85], less than 12500 nM. Still for that read-out and setting: under `CCCCNc1ncnc2cc(N3CCN(c4ccc5c(N6CCC(C)(C)CC6)ncnc5c4)CC3)ccc12` [Compound 70] stands 500 nM; under `CCCCNc1ncnc2cc(N(CC)CCN(CC)c3ccc4c(NCCC(C)C)ncnc4c3)ccc12` [Compound 87], 2500 nM; under `CCN(CCN(CC)c1ccc2c(NCCC(C)C)ncnc2c1)c1ccc2c(NCCC(C)C)ncnc2c1` [Compound 88], less than 12500 nM.

On to `CC(C)(C)CNc1ncnc2cc(N3CCN(c4ccc5c(NCCc6ccncc6)ncnc5c4)CC3)ccc12` [Compound 77], for which the EC50 was less than 12500 nM.

As to `CC(C)CCNc1ncnc2cc(N3CCN(c4ccc5c(NCCc6ccccn6)ncnc5c4)CC3)ccc12` [Compound 84], the EC50 worked out at 500 nM. Same read-out and setting: under `CCCCNc1ncnc2cc(N3CCN(c4ccc5c(NCCC(C)C)ncnc5c4)CC3)ccc12` [Compound 22] stands less than 500 nM; under `CC(C)CCNc1ncnc2cc(N3CCN(c4ccc5c(NC(C)C)ncnc5c4)CC3)ccc12` [Compound 29], less than 500 nM; under `CCCCNc1ncnc2cc(N3CCN(c4ccc5c(NCCC6CCNCC6)ncnc5c4)CC3)ccc12` [Compound 57], greater than 12500 nM. On the same count and under the same terms, under `CC(C)(C)CNc1ncnc2cc(N3CCN(c4ccc5c(NCCc6ccccc6)ncnc5c4)CC3)ccc12` [Compound 58] stands 12500 nM; under `CC(C)CCNc1ncnc2cc(N3CCN(c4ccc5c(NCCC6CCCC6)ncnc5c4)CC3)ccc12` [Compound 80], 500 nM. With `CC(C)CCNc1ncnc2cc(N(C)CCN(C)c3ccc4c(NCC(C)(C)C)ncnc4c3)ccc12` [Compound 90], the EC50 stood at 2500 nM.

Still in this assay, the particulars now being: Hennes-20 cells, 72 hours compound incubation, alamar Blue; read-out: EC50.
Turning to `CC(C)CCNc1ncnc2cc(N3CCN(c4ccc5c(N(C)CC(C)C)ncnc5c4)CC3)ccc12` [Compound 7], the EC50 was less than 500 nM.

As for `CC(C)CCNc1ncnc2cc(N3CCN(c4ccc5c(N(C)CC(C)C)ncnc5c4)CC3)ccc12` [Compound 23], the EC50 was less than 2500 nM.

The test system of another assay is plasmodium. Briefly: Malaria screen (SYBR green fluorescence, plasmodium parasitemia culture). The assay is classed as cell-based. The note with it: 0.5% plasmodium parasitemia culture, 48 hours. Here is the method:
Compound was added to a 0.5% plasmodium parasitemia culture for 48 hours, then treated with SYBR green (a dye with marked fluorescence enhancement upon contact with plasmodium DNA) and the fluorescence was measured in drug treated versus untreated cells to determine inhibitory effects (Smilkstein, et al., “Simple and inexpensive fluorescence-based technique for high-throughput antimalarial drug screening,” Antimicrob Agents Chemother, 2004 May; 48(5):1803-6. doi: 10.1128/AAC.48.5.1803-1806.2004. PMID: 15105138: PMCID: PMC400546).
In turn, `CN1CCC(Nc2ncnc3cc(N4CCN(c5ccc6c(NC7CCN(C)CC7)ncnc6c5)CC4)ccc23)CC1` [Compound 38] had an EC50 of 1.4 µM.
